Test system: C3-TAg mice (RB-deficient breast cancer)
Experiment: C3-Tag transgenic mouse model of basal-like breast cancer, tumor volume
Type: in vivo
Conditions: daily administration, 100 mg/kg daily in standard chow
Protocol: FIG. 9: CDK4/6 inhibition potentiates the efficacy of chemotherapy in mouse model of RB-deficient breast cancer. […] Data are % change in tumor volume and represents the mean of at least 15 animals per cohort +/−SEM
FIG. 10: CDK4/6 inhibition potentiates the efficacy of chemotherapy in mouse model of RB-deficient breast cancer. Mice were treated every 7 days for three weeks with carboplatin (90 mg/kg IP) alone (darkly shaded squares) or in combination with PD0332991 (150 mg/kg PO; lightly shaded squares). Data are % change in tumor volume and represents the mean of at least 15 animals per cohort +/−SEM.
The C3-TAg mice are a model of basal-like breast cancer. […] The MMTV-c-neu model expresses c-neu (the mouse ortholog of human HER2) driven by the mouse mammary tumor virus (MMTV) promoter and is a model of HER2+ breast cancer. When tumors were noted to be ˜0.2 cm^2 in size, animals were treated as described and tumor response assessed by daily caliper measurements.
The effects of CDK4/6 inhibition in the C3-Tag transgenic mouse model of basal-like breast cancer were also evaluated. […] Tumor volume was measured by caliper weekly. Tumor volume was calculated using the following formula: Volume=[(width)^2×length]/2. […] Treatments were administered on days 0, 7 and 14 and tumor volumes were measured weekly, until the mice died or were euthanized due to toxicity or tumor burden.

For CC(=O)c1c(C)c2cnc(Nc3ccc(N4CCNCC4)cn3)nc2n(C2CCCC2)c1=O [PD0332991, 6-acetyl-8-cyclopentyl-5-methyl-2-(5-piperazin-1-yl-pyridin-2-ylamino)-8H-pyrido-[2,3-d]-pyrimidin-7-one], the “tumor growth at day 21” value was “no effect on tumor growth”.

Reference: patent US9616062B2, “Cyclin dependent kinase inhibitors and methods of use” (priority 2009, dated 2017)
